Tests used:
Test in all cases: HDAC catalytic activity, fluorogenic substrate
Type in all cases: biochemical
Details in all cases: 10-dose, 3-fold serial dilution starting at 100 μM, duplicates
HDAC7 = molecular target: T1, HDAC7 (Homo sapiens, UniProt Q8WUI4)
T1 sequence (Q8WUI4 1-952): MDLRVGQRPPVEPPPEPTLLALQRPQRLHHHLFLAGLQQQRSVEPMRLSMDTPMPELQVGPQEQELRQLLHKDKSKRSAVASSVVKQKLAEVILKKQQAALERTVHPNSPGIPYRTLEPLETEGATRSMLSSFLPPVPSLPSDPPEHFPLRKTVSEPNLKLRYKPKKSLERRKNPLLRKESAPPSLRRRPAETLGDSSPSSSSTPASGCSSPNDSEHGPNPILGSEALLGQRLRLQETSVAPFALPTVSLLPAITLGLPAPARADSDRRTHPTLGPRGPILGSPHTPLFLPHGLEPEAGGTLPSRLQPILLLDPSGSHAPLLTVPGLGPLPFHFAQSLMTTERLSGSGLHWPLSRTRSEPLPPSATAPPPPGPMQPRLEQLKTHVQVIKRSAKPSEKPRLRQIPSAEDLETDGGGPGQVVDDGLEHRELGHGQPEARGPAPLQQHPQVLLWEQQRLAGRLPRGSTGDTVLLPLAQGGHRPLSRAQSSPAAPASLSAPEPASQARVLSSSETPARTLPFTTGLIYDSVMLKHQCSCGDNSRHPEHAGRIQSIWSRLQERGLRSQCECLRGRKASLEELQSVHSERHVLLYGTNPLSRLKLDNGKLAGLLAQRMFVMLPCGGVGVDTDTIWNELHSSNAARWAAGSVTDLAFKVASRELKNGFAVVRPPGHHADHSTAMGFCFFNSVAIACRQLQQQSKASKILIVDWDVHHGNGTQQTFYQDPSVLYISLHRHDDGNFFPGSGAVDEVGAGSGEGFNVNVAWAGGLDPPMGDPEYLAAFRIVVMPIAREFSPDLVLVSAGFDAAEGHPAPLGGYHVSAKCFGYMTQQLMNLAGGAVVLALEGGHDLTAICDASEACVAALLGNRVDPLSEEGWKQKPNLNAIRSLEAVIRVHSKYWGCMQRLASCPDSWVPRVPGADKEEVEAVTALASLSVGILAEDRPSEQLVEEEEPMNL
Experimental: (§1) The compound (racemate) was resuspended in 100 mM DMSO and tested in a 10-dose IC50 with 3-fold serial dilution starting at 100 μM against HDACs 1-9, and 11. As reference compounds, Trichostatin A (TSA) and TMP269 were tested in a 10-dose IC50 with 3-fold serial dilution starting at 10 μM or 1 μM.
(§2) 10 μM Fluorogenic peptide from p53 residues 379-382 (RHKK(Ac)AMC) was used for the substrate for HDAC 1, 2, 3, and 6, 50 μM Fluorogenic HDAC Class2a Substrate (Trifluoroacetyl Lysine) was used for the substrate for HDAC 4, 5, 7, 9, and 11, 100 μM Fluorogenic peptide from p53 residues 379-382 (RHK(Ac)K(Ac)AMC) was used for the substrate for HDAC8.
(§3) IC50 values were calculated using the GraphPad Prism 4 program based on a sigmoidal dose-response equation and the blank (DMSO) value concentration was entered as 1.00E-12 M for curve fitting.

HDAC1 = HDAC1 (Homo sapiens, UniProt Q13547)
Experimental: as §1, §2, §3

HDAC2 = HDAC2 (Homo sapiens, UniProt Q92769)
Experimental: as §1, §2, §3

HDAC8 = molecular target: T2, HDAC8 (Homo sapiens, UniProt Q9BY41)
T2 sequence (Q9BY41 1-377): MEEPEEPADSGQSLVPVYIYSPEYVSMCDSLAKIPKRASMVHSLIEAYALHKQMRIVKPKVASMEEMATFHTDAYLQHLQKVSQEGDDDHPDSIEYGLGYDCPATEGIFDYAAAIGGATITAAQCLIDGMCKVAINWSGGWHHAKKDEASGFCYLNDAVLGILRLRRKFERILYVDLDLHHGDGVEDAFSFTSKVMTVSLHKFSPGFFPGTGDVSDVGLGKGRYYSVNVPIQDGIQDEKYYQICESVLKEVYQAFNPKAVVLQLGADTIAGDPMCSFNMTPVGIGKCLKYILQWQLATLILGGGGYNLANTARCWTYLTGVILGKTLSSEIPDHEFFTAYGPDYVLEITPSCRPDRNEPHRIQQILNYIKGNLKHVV
Experimental: as §1, §2, §3

HDAC5 = HDAC5 (Homo sapiens, UniProt Q9UQL6)
Experimental: as §1, §2, §3

HDAC11 = molecular target: T3, HDAC11 (Homo sapiens, UniProt Q96DB2)
T3 sequence (Q96DB2 1-347): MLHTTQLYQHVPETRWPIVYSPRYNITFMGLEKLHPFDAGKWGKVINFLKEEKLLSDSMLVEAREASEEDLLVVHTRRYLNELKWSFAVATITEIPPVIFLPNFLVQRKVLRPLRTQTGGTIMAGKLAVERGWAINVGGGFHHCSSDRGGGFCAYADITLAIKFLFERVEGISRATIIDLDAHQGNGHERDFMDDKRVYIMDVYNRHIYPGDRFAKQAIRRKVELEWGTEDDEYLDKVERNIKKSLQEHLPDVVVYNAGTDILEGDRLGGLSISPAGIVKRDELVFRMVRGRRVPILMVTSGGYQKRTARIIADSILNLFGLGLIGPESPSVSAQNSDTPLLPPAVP
Experimental: as §1, §2, §3

HDAC4 = HDAC4 (Homo sapiens, UniProt P56524)
Experimental: as §1, §2, §3

HDAC2, sequence (Q92769 whole entry): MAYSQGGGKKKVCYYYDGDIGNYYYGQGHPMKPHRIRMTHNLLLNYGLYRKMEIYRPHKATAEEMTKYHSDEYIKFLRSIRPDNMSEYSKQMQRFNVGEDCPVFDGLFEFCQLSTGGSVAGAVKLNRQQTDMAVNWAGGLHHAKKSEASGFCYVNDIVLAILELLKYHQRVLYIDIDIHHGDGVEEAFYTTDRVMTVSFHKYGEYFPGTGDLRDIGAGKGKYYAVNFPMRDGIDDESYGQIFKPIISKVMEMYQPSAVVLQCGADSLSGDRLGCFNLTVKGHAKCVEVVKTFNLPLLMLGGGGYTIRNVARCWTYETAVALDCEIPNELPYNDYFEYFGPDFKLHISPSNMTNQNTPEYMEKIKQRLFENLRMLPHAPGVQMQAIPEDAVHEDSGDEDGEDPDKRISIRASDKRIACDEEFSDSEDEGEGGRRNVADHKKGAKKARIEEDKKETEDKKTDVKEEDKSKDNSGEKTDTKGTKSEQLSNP
HDAC4, sequence (P56524 whole entry, species assumed): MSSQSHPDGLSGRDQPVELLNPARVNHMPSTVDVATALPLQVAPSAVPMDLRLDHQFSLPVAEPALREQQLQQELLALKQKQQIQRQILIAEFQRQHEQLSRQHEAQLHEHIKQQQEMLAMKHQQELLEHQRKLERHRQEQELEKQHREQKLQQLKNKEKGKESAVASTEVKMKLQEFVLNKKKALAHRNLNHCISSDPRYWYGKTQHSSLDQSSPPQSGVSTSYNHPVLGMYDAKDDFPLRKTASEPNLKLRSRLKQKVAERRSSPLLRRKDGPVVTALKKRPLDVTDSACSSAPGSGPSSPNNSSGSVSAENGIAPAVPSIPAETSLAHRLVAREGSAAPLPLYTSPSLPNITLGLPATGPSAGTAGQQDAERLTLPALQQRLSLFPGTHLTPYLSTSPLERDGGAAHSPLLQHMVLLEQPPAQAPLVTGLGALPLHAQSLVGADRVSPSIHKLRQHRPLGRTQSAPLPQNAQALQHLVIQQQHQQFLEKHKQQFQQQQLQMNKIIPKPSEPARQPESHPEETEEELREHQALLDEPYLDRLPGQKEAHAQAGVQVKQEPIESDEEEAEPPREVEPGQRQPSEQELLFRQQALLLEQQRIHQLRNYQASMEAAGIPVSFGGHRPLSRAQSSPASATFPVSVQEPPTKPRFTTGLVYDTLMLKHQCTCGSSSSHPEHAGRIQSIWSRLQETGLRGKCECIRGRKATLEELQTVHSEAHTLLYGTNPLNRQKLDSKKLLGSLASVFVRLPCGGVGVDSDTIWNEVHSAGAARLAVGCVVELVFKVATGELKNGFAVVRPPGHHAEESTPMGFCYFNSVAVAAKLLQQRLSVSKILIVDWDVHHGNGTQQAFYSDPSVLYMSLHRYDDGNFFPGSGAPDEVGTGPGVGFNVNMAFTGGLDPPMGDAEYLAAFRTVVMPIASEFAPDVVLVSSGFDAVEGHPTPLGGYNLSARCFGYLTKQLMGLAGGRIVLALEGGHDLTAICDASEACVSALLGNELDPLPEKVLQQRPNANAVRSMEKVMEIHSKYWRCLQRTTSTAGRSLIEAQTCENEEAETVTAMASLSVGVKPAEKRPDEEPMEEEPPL
HDAC1, sequence (Q13547 whole entry): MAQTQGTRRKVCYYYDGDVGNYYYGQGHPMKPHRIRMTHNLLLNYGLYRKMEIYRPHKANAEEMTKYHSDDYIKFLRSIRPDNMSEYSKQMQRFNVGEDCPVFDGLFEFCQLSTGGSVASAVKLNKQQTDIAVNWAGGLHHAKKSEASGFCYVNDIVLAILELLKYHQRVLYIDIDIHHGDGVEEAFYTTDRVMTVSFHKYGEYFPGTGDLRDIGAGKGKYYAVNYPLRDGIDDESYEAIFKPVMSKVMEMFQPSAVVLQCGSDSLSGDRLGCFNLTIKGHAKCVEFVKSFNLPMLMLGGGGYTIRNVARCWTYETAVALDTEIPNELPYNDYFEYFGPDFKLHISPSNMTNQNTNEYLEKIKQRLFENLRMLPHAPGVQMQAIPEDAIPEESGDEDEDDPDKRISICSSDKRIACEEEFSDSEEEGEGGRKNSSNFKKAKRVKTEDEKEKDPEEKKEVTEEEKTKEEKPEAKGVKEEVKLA
HDAC5, sequence (Q9UQL6 whole entry, species assumed): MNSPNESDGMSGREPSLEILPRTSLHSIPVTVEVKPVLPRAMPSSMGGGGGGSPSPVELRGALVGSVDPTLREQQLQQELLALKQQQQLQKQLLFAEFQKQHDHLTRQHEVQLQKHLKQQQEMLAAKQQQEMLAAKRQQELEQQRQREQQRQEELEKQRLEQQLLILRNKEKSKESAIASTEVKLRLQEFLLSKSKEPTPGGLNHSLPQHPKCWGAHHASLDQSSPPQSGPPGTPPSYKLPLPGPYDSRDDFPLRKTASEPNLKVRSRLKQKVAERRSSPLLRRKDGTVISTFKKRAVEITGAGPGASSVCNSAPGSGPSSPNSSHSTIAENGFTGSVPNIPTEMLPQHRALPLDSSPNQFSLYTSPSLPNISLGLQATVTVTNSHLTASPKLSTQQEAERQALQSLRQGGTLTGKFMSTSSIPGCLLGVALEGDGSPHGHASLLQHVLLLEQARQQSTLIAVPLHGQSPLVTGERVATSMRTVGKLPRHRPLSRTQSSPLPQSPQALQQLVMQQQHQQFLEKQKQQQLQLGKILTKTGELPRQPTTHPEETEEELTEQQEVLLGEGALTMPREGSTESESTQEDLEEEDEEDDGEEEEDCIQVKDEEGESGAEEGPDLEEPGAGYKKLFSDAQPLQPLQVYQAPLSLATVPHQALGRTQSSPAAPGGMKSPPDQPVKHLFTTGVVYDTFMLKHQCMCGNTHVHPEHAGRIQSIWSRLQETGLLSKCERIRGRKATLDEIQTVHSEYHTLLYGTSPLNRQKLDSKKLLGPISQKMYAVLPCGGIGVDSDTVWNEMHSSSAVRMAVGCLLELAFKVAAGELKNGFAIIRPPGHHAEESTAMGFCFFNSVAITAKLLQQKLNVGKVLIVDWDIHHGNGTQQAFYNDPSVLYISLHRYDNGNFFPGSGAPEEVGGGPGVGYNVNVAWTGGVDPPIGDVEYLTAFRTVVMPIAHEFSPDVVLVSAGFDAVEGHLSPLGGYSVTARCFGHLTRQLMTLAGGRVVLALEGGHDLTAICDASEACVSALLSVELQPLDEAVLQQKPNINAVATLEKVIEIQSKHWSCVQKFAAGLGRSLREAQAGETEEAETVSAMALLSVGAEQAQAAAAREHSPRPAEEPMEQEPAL

Inhibitory effect on HDAC7 catalytic activity (HDAC7): did not show any inhibitory effect | Inhibitory effect on HDAC1 catalytic activity (HDAC1): did not show any inhibitory effect | Inhibitory effect on HDAC2 catalytic activity (HDAC2): did not show any inhibitory effect | Inhibitory effect on HDAC8 catalytic activity (HDAC8): did not show any inhibitory effect | Inhibitory effect on HDAC5 catalytic activity (HDAC5): did not show any inhibitory effect | Inhibitory effect on HDAC11 catalytic activity (HDAC11): did not show any inhibitory effect | Inhibitory effect on HDAC4 catalytic activity (HDAC4): did not show any inhibitory effect
Compound: CC1CCC(C(=O)O)CN1C(=O)Cc1ccc(F)cc1Cl (racemic) [BnH12001, 1-(2-(2-chloro-4-fluorophenyl)acetyl)-6-methylpiperidine-3-carboxylic acid]

Reference: patent US20250188032A1, “NITROGEN-CONTAINING HETEROCYCLIC COMPOUNDS AND USES THEREOF” (BNH RESEARCH CO., LTD., priority 2022, published 2025)
